Results on 5 compounds are retold here after patent US4868203A, “Bacterial substance and pharmaceutical composition thereof” (Kabushikikaisha Ueno Seiyaku Oyo Kenkyujo, priority 1986, dated 1989).

In brackets after ≈: the same amount, converted by molar mass.

A short description of data set [1]: Storage life of kamaboko, rot-proof property (Test Example 4). To be noted: 0.2%, pH 6.58, 30° C.
Protocol: Fish paste was prepared by adding NaCl (2.5%), chemical seasoning (0.8%), starch (5%) and ice water (10%) based on frozen surimi of walleye pollack (4 kg) and cutting by a silent cutter for 10 minutes. Predetermined amount of bacterial substance UFC-N11 based on the resulting fish paste (2 kg) was added and completely mixed in a small mixer for 5 minutes. About 100 g fish paste were enclosed with polyvinylidene chloride film (spread width:45 mm), boiled at 90° C. for 30 minutes, quenched, left overnight and then tested for rot-proof property.
The test was conducted as follows. As the complete package products, 10 pieces/group of kamaboko processed by casing method samples and, as the simplified package products, 10 pieces/group prepared by peeling off the casing under sterilized condition, cutting into 2 round slices (thickness: 10 mm) by a sterilized knife and placing in a sterilized plastic Petri dish. were placed in a thermostatic chamber at 30° C. and evaluated by macroscopically observation. The evaluation uses five-level scale shown below. The period until the average evaluation value of 1 is attained is defined as the storage life.
The next data set relates to Pasteurella piscicida. Briefly: microbe, parasite or virus in culture. The following applies: Photobacterium damselae. Type of data set: cell-based.
For data set [2], the system named is Xanthomonas campestris PV citri.

As to `C/C=C/C=C/C(=O)O` [Sorbic acid, reference compound], in data set [1], the “Storage life, Complete package” value was 12.0 days and the “Storage life, simplified package” value is 7.0 days.
Regarding `O=C(O)c1ccc(/C=C/c2ccc([N+](=O)[O-])o2)cc1` [Nifurstyrenic acid], the MIC against Pasteurella piscicida (strain AT-1) was 1.25 µg/mL (≈ 4.82 µM); against Pasteurella piscicida (strain AT-17), 0.31 µg/mL (≈ 1.2 µM); in the data set with Pasteurella piscicida (strain KGP86041), 2.5 µg/mL (≈ 9.64 µM); in the data set on Pasteurella piscicida (strain MEP35) it was 2.5 µg/mL (≈ 9.64 µM); in the data set on Pasteurella piscicida (strain MEP151) it was 0.31 µg/mL (≈ 1.2 µM); in the data set with Pasteurella piscicida (strain MS86115), 0.31 µg/mL (≈ 1.2 µM). For the same compound, the MIC in the data set with Pasteurella piscicida (strain MS86169) was determined as 2.5 µg/mL (≈ 9.64 µM); with Pasteurella piscicida (strain SP6275), 0.63 µg/mL (≈ 2.43 µM); against Pasteurella piscicida (strain SP6291), 0.16 µg/mL (≈ 0.617 µM); in the data set with Pasteurella piscicida (strain WP96), 0.31 µg/mL (≈ 1.2 µM).
Regarding `CCn1cc(C(=O)O)c(=O)c2cc3c(cc21)OCO3` [Oxolinic acid], the MIC in the data set with Pasteurella piscicida (strain AT-1) was determined as 1.25 µg/mL (≈ 4.79 µM); against Pasteurella piscicida (strain AT-17) it was 1.25 µg/mL (≈ 4.79 µM); against Pasteurella piscicida (strain KGP86041), 0.078 µg/mL (≈ 0.299 µM); in the data set with Pasteurella piscicida (strain MEP35) it was 1.25 µg/mL (≈ 4.79 µM); against Pasteurella piscicida (strain MEP151), 1.25 µg/mL (≈ 4.79 µM); against Pasteurella piscicida (strain MS86115) it was 1.25 µg/mL (≈ 4.79 µM). In addition, the MIC in the data set with Pasteurella piscicida (strain MS86169) turned out to be 0.078 µg/mL (≈ 0.299 µM); in the data set on Pasteurella piscicida (strain SP6275), 1.25 µg/mL (≈ 4.79 µM); against Pasteurella piscicida (strain SP6291), 0.039 µg/mL (≈ 0.149 µM); against Pasteurella piscicida (strain WP96), 0.039 µg/mL (≈ 0.149 µM).
Consider `CC1(C)S[C@@H]2[C@H](NC(=O)[C@H](N)c3ccccc3)C(=O)N2[C@H]1C(=O)O` [Ampicillin], for which the MIC was above 10 µg/mL in the data set with Pasteurella piscicida (strain AT-1); above 10 µg/mL in the data set with Pasteurella piscicida (strain AT-17); 0.039 µg/mL (≈ 0.112 µM) against Pasteurella piscicida (strain KGP86041); 0.039 µg/mL (≈ 0.112 µM) in the data set on Pasteurella piscicida (strain MEP35); above 10 µg/mL with Pasteurella piscicida (strain MEP151); 0.039 µg/mL (≈ 0.112 µM) in the data set on Pasteurella piscicida (strain MS86115). Moreover, the MIC against Pasteurella piscicida (strain MS86169) was above 10 µg/mL; with Pasteurella piscicida (strain SP6275), 0.039 µg/mL (≈ 0.112 µM); against Pasteurella piscicida (strain SP6291), above 10 µg/mL; with Pasteurella piscicida (strain WP96), 0.078 µg/mL (≈ 0.223 µM).
Compound `[H]/N=C(/N)N[C@H]1[C@H](O)[C@@H](O)[C@H](O[C@@H]2O[C@@H](C)[C@](O)(C=O)[C@H]2O[C@@H]2O[C@@H](CO)[C@H](O)[C@@H](O)[C@@H]2NC)[C@@H](N/C(N)=N\[H])[C@@H]1O` [Streptomycin, reference compound] had a Prevention in data set [2] (Streptomycin, concentration printed as 0 ppm, 14 days) of 30.3%. Moreover, in data set [2] (in vivo), the Damage entry was “nil”.
